# Measured values published in ChEMBL document CHEMBL5465560, “Selectivity Literature for EUbOPEN Chemogenomic Library” (2024).
# Columns and labels:
# [1] = target: Receptor tyrosine-protein kinase erbB-2 (Homo sapiens, UniProt P04626); experiment: Selectivity interaction (Ambit KINOMEscan and KiNATiv profiling in Jurkat cells) EUB0000090b ERBB2; assay type: cell-based; settings: at 1 µM
# [2] = target: Serine/threonine-protein kinase N1 (Homo sapiens, UniProt Q16512); experiment: Selectivity interaction (KinomeScan (DiscoverX)) EUB0000655a PKN1; settings: at 10 µM
# [3] = target: Mitogen-activated protein kinase kinase kinase 9 (Homo sapiens) (UniProt P80192); experiment: Selectivity interaction (KinomeScan (DiscoverX)) EUB0001079a MAP3K9; settings: at 1 µM
# [4] = target: Glycogen synthase kinase-3 beta (Homo sapiens, UniProt P49841); experiment: Selectivity interaction (KinomeScan (DiscoverX)) EUB0001079a GSK3B; settings: at 1 µM
# [5] = target: Casein kinase I isoform delta (Homo sapiens, UniProt P48730); experiment: Selectivity interaction (Millipore kinase profiler) EUB0000124b CSNK1D; settings: at 10 µM
# [6] = target: Tyrosine-protein kinase CSK (Homo sapiens) (UniProt P41240); experiment: Selectivity interaction (Millipore kinase profiler) EUB0000124b CSK; settings: at 10 µM
# [7] = target: LIM domain kinase 2 (Homo sapiens) (UniProt P53671); experiment: Selectivity interaction (KinomeScan (DiscoverX)) EUB0000607a LIMK2; settings: at 10 µM
# [8] = target: T1, Dual specificity mitogen-activated protein kinase kinase 3 (Homo sapiens) (UniProt P46734); experiment: Selectivity interaction (KinomeScan (DiscoverX)) EUB0000595a MAP2K3; settings: at 10 µM
# T1 sequence (whole entry): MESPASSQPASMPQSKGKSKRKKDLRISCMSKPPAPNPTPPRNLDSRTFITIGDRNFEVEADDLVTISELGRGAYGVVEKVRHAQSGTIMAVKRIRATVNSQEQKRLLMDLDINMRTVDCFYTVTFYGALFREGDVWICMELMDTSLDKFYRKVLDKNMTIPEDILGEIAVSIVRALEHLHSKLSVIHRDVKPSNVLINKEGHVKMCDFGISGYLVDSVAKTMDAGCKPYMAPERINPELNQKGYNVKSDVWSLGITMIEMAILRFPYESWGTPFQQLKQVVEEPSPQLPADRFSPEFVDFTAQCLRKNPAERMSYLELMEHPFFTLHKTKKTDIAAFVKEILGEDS
# [9] = target: T2, MAP/microtubule affinity-regulating kinase 4 (Homo sapiens) (UniProt Q96L34); settings: at 10 µM
# T2 sequence (whole entry): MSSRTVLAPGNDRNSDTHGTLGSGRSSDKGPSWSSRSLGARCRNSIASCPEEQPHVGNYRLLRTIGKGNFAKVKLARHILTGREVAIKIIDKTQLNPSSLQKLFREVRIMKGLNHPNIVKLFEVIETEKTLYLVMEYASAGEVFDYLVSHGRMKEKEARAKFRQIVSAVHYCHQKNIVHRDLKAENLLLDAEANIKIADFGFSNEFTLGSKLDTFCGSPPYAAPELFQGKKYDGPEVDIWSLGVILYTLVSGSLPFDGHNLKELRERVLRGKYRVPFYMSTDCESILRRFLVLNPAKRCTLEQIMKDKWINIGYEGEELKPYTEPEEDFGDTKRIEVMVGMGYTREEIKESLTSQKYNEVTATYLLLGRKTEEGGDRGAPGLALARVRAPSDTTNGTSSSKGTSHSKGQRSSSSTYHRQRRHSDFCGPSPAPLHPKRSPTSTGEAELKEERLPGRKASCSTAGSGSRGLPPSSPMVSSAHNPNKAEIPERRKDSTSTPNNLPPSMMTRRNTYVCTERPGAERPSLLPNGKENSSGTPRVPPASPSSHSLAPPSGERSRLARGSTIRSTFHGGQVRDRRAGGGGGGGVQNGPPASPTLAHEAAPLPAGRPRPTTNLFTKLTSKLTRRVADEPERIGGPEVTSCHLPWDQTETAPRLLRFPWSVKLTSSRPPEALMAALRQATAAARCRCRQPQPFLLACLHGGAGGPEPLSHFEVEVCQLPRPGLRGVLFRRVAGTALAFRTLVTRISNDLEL
# [10] = target: Serine/threonine-protein kinase N2 (Homo sapiens, UniProt Q16513); experiment: Selectivity interaction (KinomeScan (DiscoverX)) EUB0000229b PKN2; settings: at 10 µM
# [11] = target: G protein-coupled receptor kinase 4 (Homo sapiens) (UniProt P32298); experiment: Selectivity interaction (ProQinase) EUB0000171b GRK4
# [12] = target: Tyrosine-protein kinase Fgr (Homo sapiens) (UniProt P09769); experiment: Selectivity interaction (ProQinase) EUB0000171b FGR
# [13] = test system: Epidermal growth factor receptor (Homo sapiens), P00533 [UNDEFINED MUTATION]; experiment: Selectivity interaction (KinomeScan (DiscoverX)) EUB0000666a EGFR; settings: at 10 µM
# [14] = target: Fibroblast growth factor receptor 1 (Homo sapiens, UniProt P11362); experiment: Selectivity interaction (KinomeScan (DiscoverX)) EUB0000092b FGFR1; settings: at 10 µM
# [15] = target: Mu-type opioid receptor (Homo sapiens, UniProt P35372); experiment: Selectivity interaction (GPCR panel (PDSP screen)) EUB0000311b OPRM1; settings: at 10 µM
# [16] = target: Mitogen-activated protein kinase kinase kinase kinase 4 (Homo sapiens, UniProt O95819); experiment: Selectivity interaction (Kinase screening (Nanosyn)) EUB0000604a MAP4K4
# [17] = target: T3, Testis-specific serine/threonine-protein kinase 3 (Homo sapiens) (UniProt Q96PN8); experiment: Selectivity interaction (KinomeScan (DiscoverX)) EUB0000695a TSSK3; settings: at 100 nM
# T3 sequence (whole entry): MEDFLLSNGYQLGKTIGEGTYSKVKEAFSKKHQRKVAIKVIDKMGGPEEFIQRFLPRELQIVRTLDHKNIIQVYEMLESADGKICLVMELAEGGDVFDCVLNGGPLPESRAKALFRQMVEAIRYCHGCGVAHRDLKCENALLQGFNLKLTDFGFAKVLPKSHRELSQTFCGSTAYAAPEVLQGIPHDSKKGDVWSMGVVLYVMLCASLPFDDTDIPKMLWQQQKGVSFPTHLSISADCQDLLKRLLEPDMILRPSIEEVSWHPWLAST
# Chain of G protein-coupled receptor kinase 4 (Homo sapiens) (P32298 whole entry, looked up): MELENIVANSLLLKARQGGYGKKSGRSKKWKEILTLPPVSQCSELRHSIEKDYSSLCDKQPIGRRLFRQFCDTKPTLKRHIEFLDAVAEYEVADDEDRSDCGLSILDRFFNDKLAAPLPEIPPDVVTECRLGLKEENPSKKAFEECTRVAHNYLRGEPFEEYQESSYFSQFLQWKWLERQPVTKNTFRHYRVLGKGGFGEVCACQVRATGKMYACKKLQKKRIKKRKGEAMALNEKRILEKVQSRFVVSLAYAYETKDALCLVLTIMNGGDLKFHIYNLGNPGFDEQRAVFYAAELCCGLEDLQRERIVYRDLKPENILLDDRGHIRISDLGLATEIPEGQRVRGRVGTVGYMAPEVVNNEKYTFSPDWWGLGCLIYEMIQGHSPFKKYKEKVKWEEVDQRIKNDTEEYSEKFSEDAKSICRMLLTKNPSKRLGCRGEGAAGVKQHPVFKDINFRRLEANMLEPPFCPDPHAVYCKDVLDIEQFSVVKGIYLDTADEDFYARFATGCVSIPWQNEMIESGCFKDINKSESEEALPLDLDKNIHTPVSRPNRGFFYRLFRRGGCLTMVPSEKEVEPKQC
# Chain of Tyrosine-protein kinase Fgr (Homo sapiens) (P09769 2-529 limits assumed): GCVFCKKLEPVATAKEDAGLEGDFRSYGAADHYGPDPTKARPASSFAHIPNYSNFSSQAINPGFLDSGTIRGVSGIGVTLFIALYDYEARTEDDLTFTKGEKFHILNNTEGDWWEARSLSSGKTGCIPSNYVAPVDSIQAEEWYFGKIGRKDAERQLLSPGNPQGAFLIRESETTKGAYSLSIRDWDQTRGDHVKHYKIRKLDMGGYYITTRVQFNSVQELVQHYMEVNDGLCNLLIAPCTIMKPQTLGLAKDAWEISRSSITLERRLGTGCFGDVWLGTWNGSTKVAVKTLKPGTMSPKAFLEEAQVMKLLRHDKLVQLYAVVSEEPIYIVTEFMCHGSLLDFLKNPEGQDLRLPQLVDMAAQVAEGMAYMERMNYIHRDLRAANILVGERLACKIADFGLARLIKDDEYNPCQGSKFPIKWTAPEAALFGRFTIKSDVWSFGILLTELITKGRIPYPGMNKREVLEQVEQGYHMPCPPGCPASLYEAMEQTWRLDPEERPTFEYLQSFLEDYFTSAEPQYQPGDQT
# Chain of Mitogen-activated protein kinase kinase kinase kinase 4 (O95819 2-1239 limits assumed): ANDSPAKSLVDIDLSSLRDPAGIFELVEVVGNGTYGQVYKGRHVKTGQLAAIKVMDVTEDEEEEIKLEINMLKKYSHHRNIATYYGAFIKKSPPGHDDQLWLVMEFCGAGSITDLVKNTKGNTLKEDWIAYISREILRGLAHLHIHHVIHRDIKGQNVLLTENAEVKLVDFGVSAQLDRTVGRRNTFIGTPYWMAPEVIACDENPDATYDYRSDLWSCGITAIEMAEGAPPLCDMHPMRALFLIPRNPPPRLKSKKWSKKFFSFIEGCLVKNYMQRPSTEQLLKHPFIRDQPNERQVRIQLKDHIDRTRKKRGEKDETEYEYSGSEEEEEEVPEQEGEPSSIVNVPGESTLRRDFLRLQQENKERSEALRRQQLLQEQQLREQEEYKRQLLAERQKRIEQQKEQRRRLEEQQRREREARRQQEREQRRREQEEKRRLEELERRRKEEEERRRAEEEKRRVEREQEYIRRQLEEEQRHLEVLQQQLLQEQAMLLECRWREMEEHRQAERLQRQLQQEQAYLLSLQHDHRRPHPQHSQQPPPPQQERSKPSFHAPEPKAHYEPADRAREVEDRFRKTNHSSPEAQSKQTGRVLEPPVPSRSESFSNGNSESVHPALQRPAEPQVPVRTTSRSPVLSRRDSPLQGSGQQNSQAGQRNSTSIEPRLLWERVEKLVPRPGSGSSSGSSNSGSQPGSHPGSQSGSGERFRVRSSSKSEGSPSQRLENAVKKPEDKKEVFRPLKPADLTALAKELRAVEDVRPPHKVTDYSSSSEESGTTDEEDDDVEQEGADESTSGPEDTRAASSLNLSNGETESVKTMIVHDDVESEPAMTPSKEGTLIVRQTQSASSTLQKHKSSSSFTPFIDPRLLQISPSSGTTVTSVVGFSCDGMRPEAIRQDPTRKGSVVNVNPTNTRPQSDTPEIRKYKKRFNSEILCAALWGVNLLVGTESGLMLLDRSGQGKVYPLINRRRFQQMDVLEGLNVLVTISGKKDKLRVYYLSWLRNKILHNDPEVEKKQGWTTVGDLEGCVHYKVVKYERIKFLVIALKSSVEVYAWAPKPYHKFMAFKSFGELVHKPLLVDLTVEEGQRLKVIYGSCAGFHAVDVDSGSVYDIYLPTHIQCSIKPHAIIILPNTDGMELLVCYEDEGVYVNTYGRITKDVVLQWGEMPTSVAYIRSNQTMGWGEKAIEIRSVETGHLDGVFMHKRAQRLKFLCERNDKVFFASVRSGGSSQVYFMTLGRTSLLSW
# Chain of Serine/threonine-protein kinase N2 (Q16513 whole entry, looked up): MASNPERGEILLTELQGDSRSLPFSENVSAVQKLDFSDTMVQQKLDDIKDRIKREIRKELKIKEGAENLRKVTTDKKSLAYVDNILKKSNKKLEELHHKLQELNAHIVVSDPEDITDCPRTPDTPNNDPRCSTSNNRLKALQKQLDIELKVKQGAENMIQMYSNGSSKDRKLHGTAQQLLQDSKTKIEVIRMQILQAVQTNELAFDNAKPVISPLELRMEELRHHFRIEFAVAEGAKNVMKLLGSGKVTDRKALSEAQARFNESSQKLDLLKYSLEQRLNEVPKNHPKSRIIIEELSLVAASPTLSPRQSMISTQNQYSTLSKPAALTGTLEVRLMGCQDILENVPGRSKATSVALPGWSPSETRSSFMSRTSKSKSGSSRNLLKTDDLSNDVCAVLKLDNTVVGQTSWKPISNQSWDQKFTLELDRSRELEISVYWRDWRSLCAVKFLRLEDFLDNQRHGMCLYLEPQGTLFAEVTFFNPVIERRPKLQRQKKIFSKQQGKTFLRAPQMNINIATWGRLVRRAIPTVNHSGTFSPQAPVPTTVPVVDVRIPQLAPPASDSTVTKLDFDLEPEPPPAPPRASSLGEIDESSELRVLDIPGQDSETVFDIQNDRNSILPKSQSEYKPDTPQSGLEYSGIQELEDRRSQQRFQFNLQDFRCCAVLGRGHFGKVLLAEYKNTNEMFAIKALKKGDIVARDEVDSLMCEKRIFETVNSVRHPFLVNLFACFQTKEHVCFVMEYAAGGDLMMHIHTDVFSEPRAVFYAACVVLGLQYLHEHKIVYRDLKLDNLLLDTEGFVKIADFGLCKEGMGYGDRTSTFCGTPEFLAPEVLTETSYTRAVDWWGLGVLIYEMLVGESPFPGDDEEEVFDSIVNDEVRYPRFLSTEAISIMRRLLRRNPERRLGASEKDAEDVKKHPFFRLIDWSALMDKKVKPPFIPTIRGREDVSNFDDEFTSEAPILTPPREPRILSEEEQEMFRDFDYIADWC
# Chain of Fibroblast growth factor receptor 1 (P11362 22-822 limits assumed): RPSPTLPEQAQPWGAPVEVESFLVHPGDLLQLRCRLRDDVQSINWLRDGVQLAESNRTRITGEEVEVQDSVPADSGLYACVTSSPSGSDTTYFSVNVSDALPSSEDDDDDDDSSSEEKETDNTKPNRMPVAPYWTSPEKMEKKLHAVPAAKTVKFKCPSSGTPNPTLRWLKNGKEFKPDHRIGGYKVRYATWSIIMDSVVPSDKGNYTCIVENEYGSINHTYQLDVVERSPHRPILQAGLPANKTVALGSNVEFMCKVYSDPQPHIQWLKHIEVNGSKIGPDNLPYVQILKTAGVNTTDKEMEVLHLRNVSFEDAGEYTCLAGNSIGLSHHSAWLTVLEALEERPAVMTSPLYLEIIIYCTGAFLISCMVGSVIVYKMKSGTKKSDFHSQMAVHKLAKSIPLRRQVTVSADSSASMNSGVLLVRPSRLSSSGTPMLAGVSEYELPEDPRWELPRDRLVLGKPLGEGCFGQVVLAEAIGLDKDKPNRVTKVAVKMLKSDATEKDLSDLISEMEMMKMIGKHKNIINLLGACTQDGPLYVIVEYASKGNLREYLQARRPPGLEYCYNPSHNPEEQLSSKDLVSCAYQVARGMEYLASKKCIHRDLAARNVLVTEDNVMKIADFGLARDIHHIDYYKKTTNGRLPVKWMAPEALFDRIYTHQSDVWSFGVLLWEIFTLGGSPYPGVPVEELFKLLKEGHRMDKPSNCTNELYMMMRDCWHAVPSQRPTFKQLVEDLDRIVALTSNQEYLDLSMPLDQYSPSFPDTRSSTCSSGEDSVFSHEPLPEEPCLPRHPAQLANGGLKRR
# Chain of LIM domain kinase 2 (Homo sapiens) (P53671 whole entry, looked up, the tested form may be a part): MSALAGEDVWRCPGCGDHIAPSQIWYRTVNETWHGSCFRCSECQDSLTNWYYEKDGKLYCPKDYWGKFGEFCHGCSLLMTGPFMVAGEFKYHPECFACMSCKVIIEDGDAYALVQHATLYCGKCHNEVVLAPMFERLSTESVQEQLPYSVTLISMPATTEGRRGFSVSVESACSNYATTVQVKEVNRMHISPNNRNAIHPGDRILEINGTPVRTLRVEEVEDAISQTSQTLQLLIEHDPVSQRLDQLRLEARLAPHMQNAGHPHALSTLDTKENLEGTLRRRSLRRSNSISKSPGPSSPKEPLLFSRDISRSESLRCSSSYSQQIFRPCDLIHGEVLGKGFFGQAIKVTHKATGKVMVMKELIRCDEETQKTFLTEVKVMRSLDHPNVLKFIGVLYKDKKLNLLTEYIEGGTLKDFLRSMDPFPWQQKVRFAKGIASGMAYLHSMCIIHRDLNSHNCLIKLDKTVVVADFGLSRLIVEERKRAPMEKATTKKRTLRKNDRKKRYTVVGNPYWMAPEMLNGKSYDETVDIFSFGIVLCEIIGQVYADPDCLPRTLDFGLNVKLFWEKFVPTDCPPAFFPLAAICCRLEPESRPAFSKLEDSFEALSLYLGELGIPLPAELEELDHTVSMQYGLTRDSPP
smiles,measurement,setting,value
CN(C)C/C=C/C(=O)Nc1ccc(C(=O)N2CCCC(Nc3ncc(Cl)c(-c4c[nH]c5ccccc45)n3)C2)cc1 (centres undefined),% of control,[1],96%
CN(C)CCOc1ccc(-c2nc(-c3ccncc3)c(-c3ccc4c(c3)CC/C4=N\O)[nH]2)cc1,% of control,[2],92%
Nc1cnc(N2CCc3cc(S(=O)(=O)Nc4c(F)cc(Cl)cc4F)cc(N4CCCC4=O)c32)nc1 [TP-020n],% of control,[3],100%
same,% of control,[4],100%
CC(=O)Nc1cccc(-n2c(=O)n(C3CC3)c(=O)c3c(Nc4ccc(I)cc4F)n(C)c(=O)c(C)c32)c1,% of control,[5],105%
same,% of control,[6],97%
CNC(=O)Nc1ccc(-c2nc(N3CC4CCC(C3)O4)c3cnn(C4CCC5(CC4)OCCO5)c3n2)cc1,% of control,[7],88%
COCC(=O)NC/C=C/c1ccc2ncnc(Nc3ccc(Oc4ccc(C)nc4)c(C)c3)c2c1 [CP-724714],% of control,[8],100%
Cc1cc([C@@H](C)Nc2ccccc2C(=O)O)c2nc(N3CCOCC3)cc(=O)n2c1 [AZD-6482],% of control,[9],100%
COc1cc(N(C)c2ccnc3ccc(C(F)(F)F)cc23)cc(OC)c1OC,% binding,[10],84%
C=CC(=O)Nc1cccc(C(=O)Nc2ccc(Nc3cc(-c4[nH]c(SC)nc4C)ccn3)cc2)c1,% of control,[11]; at 1 µM,101%
same,% of control,[11]; at 5 µM,97%
same,% of control,[12]; at 1 µM,87%
same,% of control,[12]; at 5 µM,79%
O=C(NOC[C@H](O)CO)c1ccc(F)c(F)c1Nc1ccc(I)cc1F,% of control,[13],59%
CCC(=O)N1CCN(c2ccc(-n3c(=O)ccc4cnc5ccc(-c6cnc7ccccc7c6)cc5c43)cc2C(F)(F)F)CC1,% of control,[14],96%
CCc1ccccc1C(=O)Nc1n[nH]c2c(C)c(F)c(C3C(C#N)=C(C)N(C)C(C)=C3C#N)cc12 [BAY-3827],% of inhibition,[15],30.5%
Cc1cnc(Nc2ccc(F)cc2Cl)nc1-c1c[nH]c(C(=O)N[C@H](CO)c2cccc(Cl)c2)c1,% of inhibition,[16],18%
Cc1cc(F)c(C(=O)Nc2cccc(-c3nncn3C(C)C)n2)cc1-n1cnc(C2CC2)c1,% of control,[17],57%
